# Laboratory results taken from patent US12303592B2, “Formulations for parenteral delivery of compounds and uses thereof” (Wyeth, LLC, priority 2006, dated 2025).
# Assay: Stopper compatibility evaluation (Table 14), HPLC Method A; for RRT 0.38: key: BRL=below recordable limit; for RRT 0.49: key: BRL=below recordable limit; for RRT 0.67: key: BRL=below recordable limit; for RRT 0.79: key: BRL=below recordable limit; for RRT 0.89: key: BRL=below recordable limit; for RRT 1.17: key: BRL=below recordable limit; for RRT 1.55: key: BRL=below recordable limit; for RRT 1.89: key: BRL=below recordable limit; for RRT 1.96: key: BRL=below recordable limit; for RRT 2.01: key: BRL=below recordable limit; for RRT 2.26: key: BRL=below recordable limit
# Type: physicochemical
# Parameters: RRT 1.77 / Total / RRT 1.66: unit not given here
# Description: Identical preparations prepared as described in Example 4 were stored in parallel in vials having either a 13 mm WPS S2-F451 4432/50 Gray B2-40 Westar RS stopper (West Pharmaceutical Services) or a 13 mm S2-F451 RS D 777-1 RB2 40 stopper (Daikyo Seiko, Ltd) under various conditions. Each of the stoppers has a FluoroTec® fluorocarbon film; the Westar 4432/50 stopper is chlorobutyl rubber, while the RB2-40 RS D 777-1 stopper is bromobutyl rubber. The presence of accumulation of degradant was assessed for each of the configurations (HPLC Method A).
# [1] = Control at Room Temperature, 1 hours
# [2] = Control at Room Temperature, 4 hours
# [3] = RS-D 777-1 B2 40 from Daikyo Seiko Ltd. at 40° C., 1 hours
# [4] = RS-D 777-1 B2 40 from Daikyo Seiko Ltd. at 40° C., 4 hours
# [5] = RS-D 777-1 B2 40 from Daikyo Seiko Ltd. at Room Temperature, 1 hours
# [6] = RS-D 777-1 B2 40 from Daikyo Seiko Ltd. at Room Temperature, 4 hours
# [7] = Westar RS stopper (West Pharmaceutical Services) at 40° C., 1 hours
# [8] = Westar RS stopper (West Pharmaceutical Services) at 40° C., 4 hours
# [9] = Westar RS stopper (West Pharmaceutical Services) at Room Temperature, 1 hours
# [10] = Westar RS stopper (West Pharmaceutical Services) at Room Temperature, 4 hours
structure (smiles),measurement,setting,value
"C[N+]1(CC2CC2)CC[C@]23c4c5ccc(O)c4O[C@H]2C(=O)CC[C@@]3(O)[C@H]1C5 (some centres unmarked) [MNTX, methylnaltrexone bromide]",Initial,"Control at 40° C., 1 hours",20.3 mg
same,RRT 0.38,"Control at 40° C., 1 hours",BRL
same,RRT 0.49,"Control at 40° C., 1 hours",BRL
same,RRT 0.67,"Control at 40° C., 1 hours",BRL
same,RRT 0.79,"Control at 40° C., 1 hours",BRL
same,RRT 0.89,"Control at 40° C., 1 hours",BRL
same,RRT 1.17,"Control at 40° C., 1 hours",BRL
same,RRT 1.55,"Control at 40° C., 1 hours",BRL
same,RRT 1.66,"Control at 40° C., 1 hours",0.12
same,RRT 1.77,"Control at 40° C., 1 hours",BRL
same,RRT 1.89,"Control at 40° C., 1 hours",BRL
same,RRT 1.96,"Control at 40° C., 1 hours",BRL
same,RRT 2.01,"Control at 40° C., 1 hours",BRL
same,RRT 2.26,"Control at 40° C., 1 hours",BRL
same,Total,"Control at 40° C., 1 hours",0.12
same,Initial,"Control at 40° C., 4 hours",20.3 mg
same,RRT 0.38,"Control at 40° C., 4 hours",BRL
same,RRT 0.49,"Control at 40° C., 4 hours",BRL
same,RRT 0.67,"Control at 40° C., 4 hours",BRL
same,RRT 0.79,"Control at 40° C., 4 hours",BRL
same,RRT 0.89,"Control at 40° C., 4 hours",BRL
same,RRT 1.17,"Control at 40° C., 4 hours",BRL
same,RRT 1.55,"Control at 40° C., 4 hours",BRL
same,RRT 1.66,"Control at 40° C., 4 hours",0.12
same,RRT 1.77,"Control at 40° C., 4 hours",BRL
same,RRT 1.89,"Control at 40° C., 4 hours",BRL
same,RRT 1.96,"Control at 40° C., 4 hours",BRL
same,RRT 2.01,"Control at 40° C., 4 hours",BRL
same,RRT 2.26,"Control at 40° C., 4 hours",BRL
same,Total,"Control at 40° C., 4 hours",0.12
same,Initial,[1],20.1 mg
same,RRT 0.38,[1],BRL
same,RRT 0.49,[1],BRL
same,RRT 0.67,[1],BRL
same,RRT 0.79,[1],BRL
same,RRT 0.89,[1],BRL
same,RRT 1.17,[1],BRL
same,RRT 1.55,[1],BRL
same,RRT 1.66,[1],0.12
same,RRT 1.77,[1],BRL
same,RRT 1.89,[1],BRL
same,RRT 1.96,[1],BRL
same,RRT 2.01,[1],BRL
same,RRT 2.26,[1],BRL
same,Total,[1],0.12
same,Initial,[2],20.0 mg
same,RRT 0.38,[2],BRL
same,RRT 0.49,[2],BRL
same,RRT 0.67,[2],BRL
same,RRT 0.79,[2],BRL
same,RRT 0.89,[2],BRL
same,RRT 1.17,[2],BRL
same,RRT 1.55,[2],BRL
same,RRT 1.66,[2],0.12
same,RRT 1.77,[2],BRL
same,RRT 1.89,[2],BRL
same,RRT 1.96,[2],BRL
same,RRT 2.01,[2],BRL
same,RRT 2.26,[2],BRL
same,Total,[2],0.12
same,Initial,Initial,20.2 mg
same,RRT 0.38,Initial,BRL
same,RRT 0.49,Initial,BRL
same,RRT 0.67,Initial,BRL
same,RRT 0.79,Initial,BRL
same,RRT 0.89,Initial,BRL
same,RRT 1.17,Initial,BRL
same,RRT 1.55,Initial,BRL
same,RRT 1.66,Initial,0.12
same,RRT 1.77,Initial,BRL
same,RRT 1.89,Initial,BRL
same,RRT 1.96,Initial,BRL
same,RRT 2.01,Initial,BRL
same,RRT 2.26,Initial,BRL
same,Total,Initial,0.12
same,Initial,[3],20.1 mg
same,RRT 0.38,[3],BRL
same,RRT 0.49,[3],BRL
same,RRT 0.67,[3],BRL
same,RRT 0.79,[3],BRL
same,RRT 0.89,[3],BRL
same,RRT 1.17,[3],BRL
same,RRT 1.55,[3],BRL
same,RRT 1.66,[3],0.12
same,RRT 1.77,[3],0.05
same,RRT 1.89,[3],BRL
same,RRT 1.96,[3],BRL
same,RRT 2.01,[3],BRL
same,RRT 2.26,[3],BRL
same,Total,[3],0.17
same,RRT 0.38,[4],BRL
same,RRT 0.49,[4],BRL
same,RRT 0.67,[4],BRL
same,RRT 0.79,[4],BRL
same,RRT 0.89,[4],BRL
same,RRT 1.17,[4],BRL
same,RRT 1.55,[4],BRL
same,RRT 1.66,[4],0.12
same,RRT 1.77,[4],0.05
same,RRT 1.89,[4],BRL
same,RRT 1.96,[4],BRL
same,RRT 2.01,[4],BRL
same,RRT 2.26,[4],BRL
same,Total,[4],0.17
same,Initial,[5],20.3 mg
same,RRT 0.38,[5],BRL
same,RRT 0.49,[5],BRL
same,RRT 0.67,[5],BRL
same,RRT 0.79,[5],BRL
same,RRT 0.89,[5],BRL
same,RRT 1.17,[5],BRL
same,RRT 1.55,[5],BRL
same,RRT 1.66,[5],0.12
same,RRT 1.77,[5],BRL
same,RRT 1.89,[5],BRL
same,RRT 1.96,[5],BRL
same,RRT 2.01,[5],BRL
same,RRT 2.26,[5],BRL
same,Total,[5],0.12
same,Initial,[6],20.2 mg
same,RRT 0.38,[6],BRL
same,RRT 0.49,[6],BRL
same,RRT 0.67,[6],BRL
same,RRT 0.79,[6],BRL
same,RRT 0.89,[6],BRL
same,RRT 1.17,[6],BRL
same,RRT 1.55,[6],BRL
same,RRT 1.66,[6],0.12
same,RRT 1.77,[6],BRL
same,RRT 1.89,[6],BRL
same,RRT 1.96,[6],BRL
same,RRT 2.01,[6],BRL
same,RRT 2.26,[6],BRL
same,Total,[6],0.12
same,Initial,[7],20.1 mg
same,RRT 0.38,[7],BRL
same,RRT 0.49,[7],BRL
same,RRT 0.67,[7],BRL
same,RRT 0.79,[7],BRL
same,RRT 0.89,[7],BRL
same,RRT 1.17,[7],BRL
same,RRT 1.55,[7],BRL
same,RRT 1.66,[7],0.06
same,RRT 1.77,[7],BRL
same,RRT 1.89,[7],BRL
same,RRT 1.96,[7],BRL
same,RRT 2.01,[7],BRL
same,RRT 2.26,[7],BRL
same,Total,[7],0.06
same,Initial,[8],20.2 mg
same,RRT 0.38,[8],BRL
same,RRT 0.49,[8],BRL
same,RRT 0.67,[8],BRL
same,RRT 0.79,[8],BRL
same,RRT 0.89,[8],BRL
same,RRT 1.17,[8],BRL
same,RRT 1.55,[8],BRL
same,RRT 1.66,[8],0.06
same,RRT 1.77,[8],0.05
same,RRT 1.89,[8],BRL
same,RRT 1.96,[8],BRL
same,RRT 2.01,[8],BRL
same,RRT 2.26,[8],BRL
same,Total,[8],0.06
same,Initial,[9],20.3 mg
same,RRT 0.38,[9],BRL
same,RRT 0.49,[9],BRL
same,RRT 0.67,[9],BRL
same,RRT 0.79,[9],BRL
same,RRT 0.89,[9],BRL
same,RRT 1.17,[9],BRL
same,RRT 1.55,[9],BRL
same,RRT 1.66,[9],0.06
same,RRT 1.77,[9],BRL
same,RRT 1.89,[9],BRL
same,RRT 1.96,[9],BRL
same,RRT 2.01,[9],BRL
same,RRT 2.26,[9],BRL
same,Total,[9],0.06
same,Initial,[10],20.1 mg
same,RRT 0.38,[10],BRL
same,RRT 0.49,[10],BRL
same,RRT 0.67,[10],BRL
same,RRT 0.79,[10],BRL
same,RRT 0.89,[10],BRL
same,RRT 1.17,[10],BRL
same,RRT 1.55,[10],BRL
same,RRT 1.66,[10],0.06
same,RRT 1.77,[10],BRL
same,RRT 1.89,[10],BRL
same,RRT 1.96,[10],BRL
same,RRT 2.01,[10],BRL
same,RRT 2.26,[10],BRL
same,Total,[10],0.06
